# Where two headings read alike, the source gives them in different places.
# Assays:
# Format in all cases: cell-based
# [1] = test system: MDA-MB-435S human breast cancer cells; test: MTT assay, proliferation of MDA-MB-435S cells; settings: Homo sapiens, 72 h
# Method: The experiments for evaluating the antineoplasmic activities of the compounds according to the present invention were carried out, and the compounds' antineoplasmic activities in vitro was evaluated by determining the inhibitory activities thereof against the proliferation of MDA-MB-435S human breast cancer cells.
# The antineoplasmic activities were determined by using the MTT assay, which is based on the metabolic reduction of 3-(4,5-dimethylthylthiazol-2-yl)-2,5-diphenyl tetrazolium bromide (MTT). The dehydrogenases, which are related to NADP (niacinamide adenine dinucleotide phosphate, coenzyme) and present in mitochondrions of living cells, can reduce the yellow MTT to an insoluble, dark purple formazan. […] After the formazan is dissolved in DMSO, the optical density is determined on an ELISA Reader at the wavelength of 550/690 nm.
# (§1) The adhered MDA-MB-4355 cells in logarithmic growth phase, were digested by 0.05% trypsogen, counted and formulated into a cell suspension with a medium. After counted, the suspension was inoculated on a 96-well plate with 3000 cells and 100 μl medium per well. The inoculated 96-well plate was placed overnight in an incubator at 37 with 5% CO2 to allow the cells to adhere to the wall. On the next day, the administration of the drugs started. Before the administration, into some of the control wells, each was added 20 μl of the MTT solution (5 mg/ml) without removing the medium therein. After incubated for 3 h, the absorption at A550/690 was recorded as the initial cell concentration. For the drug wells, each was added into 100 μl of medium containing 2 μl of compound solution. For the control wells which use DMSO as background control, each was also added into 100 μl of medium containing 2 μl of DMSO. In addition, each experiment was carried out with adriamycin as the positive control. Subsequently, the 96-well plate was incubated in an incubator at 37 with 5% CO2 for 72 h. each compound was tested in triplicate wells (6 μl of compound solution was put into a sterilized eppendorf centrifuge tube, then 300 μl of medium was added and mixed well, and the mixture was distributed into 3 wells respectively), and at six concentrations which form a gradient. 3 days (72 h) later, 40 μl of MTT solution (5 mg/ml) was put into each well directly (without sucking off the medium therein), and the plate was incubated in the incubator for 3 h and then taken out. The liquid in each well was sucked off, and then 100 μl of DMSO was put into each well to dissolve the crystal completely with slight shake. The absorbance of the solution in each well was determined at 550/690 nm on an ELISA Reader as the cell density after treated with the compound. The growth inhibition of compound against breast cancer cells MDA-MB-435S was represented by the cell survival rate, and IC50 was determined from the profile of cell survival rate vs compound concentration. The calculating formula was as follows: cell survival rate=[(cells+compound)A550/690/(cells+compound vector DMSO)A550/690]×100%
# [2] = test system: lung adenocarcinoma cells A549; test: MTT assay, A549 cells; settings: Homo sapiens, 72 h
# Method: as §1
# (§2) MDA-MB-435S: human breast cancer cells; HCT116: colon cancer cells; A549: lung adenocarcinoma cells; Hela: uterine cervix cancer cells.
# (§3) The tests were performed in the same manner as that of experimental example 1, except that for Hela cells, after counted, each well was seeded with 1000 cells and 100 μl of medium on a 96-well plate.
# [3] = test system: colon cancer cells HCT116; test: MTT assay, HCT116 cells; settings: Homo sapiens, HCT-116, 72 h
# Method: as §1, §2, §3
# [4] = test system: Hela uterine cervix cancer cells; test: MTT assay, Hela cells; settings: Homo sapiens, 72 h, 1000 cells per well
# Method: as §1, §2, §3
# [5] = read-out: Cell Survival Rate IC50
# [6] = note: MDA-MB-435S, read-out: IC50 (MDA-MB-435)
SMILES,"IC50 [1, 5] [nM]",other results
CO[C@@H](C(=O)N[C@@H](CCCCNC(=O)OC(C)(C)C)C(=O)NCCOC(=O)C1CCCCC1)[C@H](O)[C@@H](O)[C@H](O)/C=C/C(C)(C)C [Compound L643],1560,–
CO[C@@H](C(=O)N[C@@H](C)C(=O)NCCOC(=O)C(C)C)[C@H](O)[C@@H](O)[C@H](O)/C=C/C(C)(C)C [Compound L446a],7060,–
CO[C@@H](C(=O)N[C@@H](C)C(=O)NCCOC(=O)C1CCCCC1)[C@H](O)[C@@H](O)[C@H](O)/C=C/C(C)(C)C [Compound L486d],280,"IC50 [2]: 75 ± 14 nM; IC50 [1, 6]: 284 ± 100 nM; IC50 [3]: 97 ± 13 nM; IC50 [4]: 165 ± 30 nM"
CO[C@@H](C(=O)N[C@@H](CC(C)C)C(=O)NCCOC(=O)C1CCCCC1)[C@H](O)[C@@H](O)[C@H](O)/C=C/C(C)(C)C [Compound L528b],2620,–
CO[C@@H](C(=O)N[C@@H](C)C(=O)NCCNC(=O)C1CCCCC1)[C@H](O)[C@@H](O)[C@H](O)/C=C/C(C)(C)C [Compound L485],3150,–
C=CCNC(=O)[C@H](CCSC)NC(=O)[C@H](OC)[C@H](O)[C@@H](O)[C@H](O)/C=C/C(C)(C)C [Compound L432],4570,–
CCC(C)[C@H](NC(=O)[C@H](OC)[C@H](O)[C@@H](O)[C@H](O)/C=C/C(C)(C)C)C(=O)NCCOC(=O)C1CCCCC1 (stereo partly drawn) [Compound L528a],3240,–
CO[C@@H](C(=O)N[C@@H](C)C(=O)NCCOC(=O)c1ccccc1)[C@H](O)[C@@H](O)[C@H](O)/C=C/C(C)(C)C [Compound L480],2370,–
CO[C@@H](C(=O)N[C@@H](C)C(=O)NCCOC(=O)CCCCCCCCCN=[N+]=[N-])[C@H](O)[C@@H](O)[C@H](O)/C=C/C(C)(C)C [Compound L572],110,–
"COc1cccc2c1C(=O)c1c(O)c3c(c(O)c1C2=O)C[C@@](O)(C(=O)CO)C[C@@H]3O[C@H]1C[C@H](N)[C@H](O)[C@H](C)O1 [adriamycin, reference compound]",510,"IC50 [2]: 261 ± 65 nM; IC50 [1, 6]: 510 ± 124 nM; IC50 [3]: 110 ± 13 nM"
CO[C@@H](C(=O)N[C@@H](C)C(=O)NCCOCc1ccccc1)[C@H](O)[C@@H](O)[C@H](O)/C=C/C(C)(C)C [Compound L466],~10000,–
C=CCNC(=O)[C@@H](NC(=O)[C@H](OC)[C@H](O)[C@@H](O)[C@H](O)/C=C/C(C)(C)C)C(C)C [Compound L400],9680,–
CO[C@@H](C(=O)N[C@@H](C)C(=O)NCC1CC(Cc2ccccc2)C(=O)O1)[C@H](O)[C@@H](O)[C@H](O)/C=C/C(C)(C)C (stereo partly drawn) [Compound L521],25200,–
C=CCNC(=O)[C@H](CCC(=O)OC(C)(C)C)NC(=O)[C@H](OC)[C@H](O)[C@@H](O)[C@H](O)/C=C/C(C)(C)C [Compound L486e],2850,–
CO[C@@H](C(=O)N[C@@H](C)C(=O)NCCOC(=O)[C@H]1CCCO1)[C@H](O)[C@@H](O)[C@H](O)/C=C/C(C)(C)C [Compound L474],8860,–
C#CCCCC(=O)OCCNC(=O)[C@H](C)NC(=O)[C@H](OC)[C@H](O)[C@@H](O)[C@H](O)/C=C/C(C)(C)C [Compound L471b],110,–
C=CCNC(=O)[C@H](Cc1cn(COCc2ccccc2)cn1)NC(=O)[C@H](OC)[C@H](O)[C@@H](O)[C@H](O)/C=C/C(C)(C)C [Compound L558b],1900,–
CO[C@@H](C(=O)N[C@@H](C)C(=O)NCCCOC(=O)C1CCCCC1)[C@H](O)[C@@H](O)[C@H](O)/C=C/C(C)(C)C [Compound L500b],140,–
CO[C@@H](C(=O)N[C@H](C(=O)NCCOC(=O)C1CCCCC1)C(C)C)[C@H](O)[C@@H](O)[C@H](O)/C=C/C(C)(C)C [Compound L514c],2220,–
CO[C@@H](C(=O)N[C@@H](C)C(=O)NCCCOCC(C)C)[C@H](O)[C@@H](O)[C@H](O)/C=C/C(C)(C)C [Compound L446b],9560,–
